Assay results: the supplement of paper PMC10307832

How the values were obtained:
Assay in all cases: relative viability (nuclei count vs DMSO), 5 days (fraction); higher = more cells survive
[1] = compound: C=CC(=O)N1CCC[C@@H](n2nc(-c3ccc(Oc4ccccc4)cc3)c3c(N)ncnc32)C1 [Ibrutinib] + CC(=O)c1c(C)c2cnc(Nc3ccc(N4CCNCC4)cn3)nc2n(C2CCCC2)c1=O [Palbociclib] (partner 0.5 µM)
How it was run: (§1)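 Lung cancer cell lines in 1536-well plates got either a single drug or a fixed anchor-drug dose together with five library-drug doses (not always all listed) in √10 steps, by pin tool, on the day after seeding. Nuclei were counted after 5 days, and relative viability is the treated-to-vehicle ratio of nuclei counts. Values are medians of duplicate plates.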

[2] = compound: C=CC(=O)Nc1cc(-n2c(=O)ccc3cnc4ccc(-c5ccc(NS(C)(=O)=O)cc5)cc4c32)ccc1C [BMX-IN-1] + N=C(N)NC(=N)NCCc1ccccc1 [Phenformin] (partner 250 µM)
How it was run: as §1

[3] = compound: C=CC(=O)N1CCC[C@@H](n2nc(-c3ccc(Oc4ccccc4)cc3)c3c(N)ncnc32)C1 [Ibrutinib] + COc1cccc2cc(-c3nc([C@H]4CC[C@H](C(=O)O)CC4)n4ncnc(N)c34)[nH]c12 [OSI-027] (partner 0.5 µM)
How it was run: as §1

[4] = compound: C=CC(=O)Nc1cc(-n2c(=O)ccc3cnc4ccc(-c5ccc(NS(C)(=O)=O)cc5)cc4c32)ccc1C [BMX-IN-1] + CC(=O)Nc1cccc(-n2c(=O)n(C3CC3)c(=O)c3c(Nc4ccc(I)cc4F)n(C)c(=O)c(C)c32)c1 [Trametinib] (partner 0.02 µM)
How it was run: as §1

NCI-H358 gave a relative viability ([1]; first compound 0.005 µM) of 0.121, a relative viability ([1]; first compound 0.01581 µM) of 0.169 and a relative viability ([1]; first compound 0.1581 µM) of 0.189. The relative viability ([1]; first compound 0.5 µM) was 0.11, the relative viability ([2]; first compound 0.02 µM) was 0.355 and the relative viability ([2]; first compound 0.2 µM) was 0.342. For the same cell line, the relative viability ([2]; first compound 0.6325 µM) was 0.384, the relative viability ([2]; first compound 2 µM) was 0.324 and the relative viability ([3]; first compound 0.005 µM) was 0.486. It also gave a relative viability ([3]; first compound 0.05 µM) of 0.378, a relative viability ([3]; first compound 0.1581 µM) of 0.488 and a relative viability ([3]; first compound 0.5 µM) of 0.211. The relative viability ([4]; first compound 0.02 µM) was 0.119, the relative viability ([4]; first compound 0.2 µM) was 0.124 and the relative viability ([4]; first compound 0.6325 µM) was 0.127. It also gave a relative viability ([4]; first compound 2 µM) of 0.123.
For NCI-H1395, the relative viability ([1]; first compound 0.005 µM) was 0.55, the relative viability ([1]; first compound 0.01581 µM) was 0.672 and the relative viability ([1]; first compound 0.05 µM) was 0.648. For the same cell line, the relative viability ([1]; first compound 0.1581 µM) was 0.623, the relative viability ([1]; first compound 0.5 µM) was 0.612 and the relative viability ([2]; first compound 0.02 µM) was 0.445. For the same cell line, the relative viability ([2]; first compound 0.2 µM) was 0.456, the relative viability ([2]; first compound 0.6325 µM) was 0.444 and the relative viability ([2]; first compound 2 µM) was 0.47. For the same cell line, the relative viability ([3]; first compound 0.005 µM) was 0.602, the relative viability ([3]; first compound 0.01581 µM) was 0.617 and the relative viability ([3]; first compound 0.05 µM) was 0.612. The relative viability ([3]; first compound 0.1581 µM) was 0.5, the relative viability ([3]; first compound 0.5 µM) was 0.781 and the relative viability ([4]; first compound 0.02 µM) was 1.19. For the same cell line, the relative viability ([4]; first compound 0.2 µM) was 1.12, the relative viability ([4]; first compound 0.6325 µM) was 0.958 and the relative viability ([4]; first compound 2 µM) was 0.966.
NCI-H838 showed a relative viability ([1]; first compound 0.005 µM) of 0.178, a relative viability ([1]; first compound 0.01581 µM) of 0.209 and a relative viability ([1]; first compound 0.05 µM) of 0.202. For the same cell line, the relative viability ([1]; first compound 0.1581 µM) was 0.202, the relative viability ([1]; first compound 0.5 µM) was 0.234 and the relative viability ([2]; first compound 0.02 µM) was 0.564. It also gave a relative viability ([2]; first compound 0.2 µM) of 0.739, a relative viability ([2]; first compound 0.6325 µM) of 0.744 and a relative viability ([2]; first compound 2 µM) of 0.572. It also gave a relative viability ([3]; first compound 0.005 µM) of 0.36, a relative viability ([3]; first compound 0.01581 µM) of 0.405 and a relative viability ([3]; first compound 0.05 µM) of 0.387. The relative viability ([3]; first compound 0.1581 µM) was 0.399, the relative viability ([3]; first compound 0.5 µM) was 0.481 and the relative viability ([4]; first compound 0.02 µM) was 0.605. The relative viability ([4]; first compound 0.2 µM) was 0.518, the relative viability ([4]; first compound 0.6325 µM) was 0.562 and the relative viability ([4]; first compound 2 µM) was 0.568.
NCI-H520 was tested, and the relative viability ([1]; first compound 0.005 µM) was 0.183, the relative viability ([1]; first compound 0.01581 µM) was 0.217 and the relative viability ([1]; first compound 0.05 µM) was 0.206. It also gave a relative viability ([1]; first compound 0.1581 µM) of 0.237, a relative viability ([1]; first compound 0.5 µM) of 0.161 and a relative viability ([2]; first compound 0.02 µM) of 0.711. For the same cell line, the relative viability ([2]; first compound 0.2 µM) was 0.81, the relative viability ([2]; first compound 0.6325 µM) was 0.709 and the relative viability ([2]; first compound 2 µM) was 0.693. The relative viability ([3]; first compound 0.005 µM) was 0.221, the relative viability ([3]; first compound 0.05 µM) was 0.212 and the relative viability ([3]; first compound 0.1581 µM) was 0.258. The relative viability ([3]; first compound 0.5 µM) was 0.241, the relative viability ([4]; first compound 0.02 µM) was 0.892 and the relative viability ([4]; first compound 0.2 µM) was 0.721. It also gave a relative viability ([4]; first compound 0.6325 µM) of 0.741 and a relative viability ([4]; first compound 2 µM) of 0.733.
SW 1573 was tested, and the relative viability ([1]; first compound 0.01581 µM) was 0.345, the relative viability ([1]; first compound 0.05 µM) was 0.419 and the relative viability ([1]; first compound 0.1581 µM) was 0.393. It also gave a relative viability ([1]; first compound 0.5 µM) of 0.477, a relative viability ([2]; first compound 0.02 µM) of 0.383 and a relative viability ([2]; first compound 0.2 µM) of 0.446. The relative viability ([2]; first compound 0.6325 µM) was 0.342, the relative viability ([2]; first compound 2 µM) was 0.351 and the relative viability ([3]; first compound 0.005 µM) was 0.436. The relative viability ([3]; first compound 0.01581 µM) was 0.517, the relative viability ([3]; first compound 0.05 µM) was 0.653 and the relative viability ([3]; first compound 0.1581 µM) was 0.704. The relative viability ([3]; first compound 0.5 µM) was 0.651, the relative viability ([4]; first compound 0.02 µM) was 0.657 and the relative viability ([4]; first compound 0.2 µM) was 0.719. For the same cell line, the relative viability ([4]; first compound 0.6325 µM) was 0.624 and the relative viability ([4]; first compound 2 µM) was 0.507.
